Test results taken from paper PMC4370454, “The 4′-Hydroxyl Group of Resveratrol Is Functionally Important for Direct Activation of PPARα” (PLoS ONE, 2015).

Molecular target: T1, PDE (bovine brain-derived phosphodiesterase, majority PDE4 isozyme)
T1 construct: bovine brain-derived PDE (Sigma), majority PDE4 isozyme
Experiment: PDE-Glo phosphodiesterase assay, […] cAMP substrate
Assay type: biochemical, Bos taurus

Row | SMILES | IC50
1 | Oc1ccc(/C=C/c2cc(O)cc(O)c2)cc1 [resveratrol] | 19 µM
2 | Oc1ccc(/C=C/c2ccccc2)cc1 [T4HS, trans-4-hydroxystilbene] | 27.8 µM
3 | Oc1ccc(/N=N/c2ccccc2)cc1 [4-PAP, 4-phenylazophenol] | 26.5 µM
